The source made the active and inactive calls. The rule behind the calls is not given here.
Experiments:
[1] = Octanol-water partition coefficient, log P of the compound at 10 mM after 24 hrs by UV-vis spectroscopic method; format: physicochemical
[2] = tested on: HaCaT; assay: Cytotoxicity against human HaCaT cells assessed as reduction in cell viability after 72 hrs by MTT assay; format: cell-based
[3] = tested on: C6; assay: Cytotoxicity against rat C6 cells assessed as reduction in cell viability after 72 hrs by MTT assay; format: functional, cell-based; settings: C6, 72 h
[4] = tested on: MCF7; assay: Cytotoxicity against human MCF7 cells assessed as reduction in cell viability after 72 hrs by MTT assay; format: functional, cell-based; settings: MCF7, 72 h
[5] = tested on: MDA-MB-231; assay: Cytotoxicity against human MDA-MB-231 cells assessed as reduction in cell viability after 72 hrs by MTT assay; format: functional, cell-based; settings: MDA-MB-231, 72 h
[6] = tested on: CNE; assay: Cytotoxicity against human CNE1 cells assessed as reduction in cell viability after 72 hrs by MTT assay; format: functional, cell-based
[7] = tested on: HepG2; assay: Cytotoxicity against human HepG2 cells assessed as reduction in cell viability after 72 hrs by MTT assay; format: functional, cell-based; settings: HepG2, 72 h
[8] = Cytotoxicity against human NCI-EC1 cells assessed as reduction in cell viability after 72 hrs by MTT assay; format: functional, cell-based
[9] = tested on: Quadruplex DNA; assay: Binding affinity to c-Myc G-quadruplex DNA (unknown origin) at 20 uM incubated for 3 mins by electronic absorption spectra method; format: nucleic-acid assay
[10] = tested on: Quadruplex DNA; assay: Effect on conformation of c-Myc G-quadruplex DNA (unknown origin) at 1 mM measured every 3 mins by CD spectroscopic analysis; format: nucleic-acid assay
[11] = tested on: Quadruplex DNA; assay: Binding affinity to c-Myc G-quadruplex DNA (unknown origin) assessed as hypochromism at 20 uM incubated for 3 mins by electronic absorption spectra method; format: nucleic-acid assay
[12] = tested on: Quadruplex DNA; assay: Binding affinity to c-Myc G-quadruplex DNA (unknown origin) at 20 uM incubated for 2 mins by fluorescence emission spectra method; format: nucleic-acid assay

| Structure (SMILES) | logP at 24 h, 10000 µM [1] | IC50 [2] | IC50 [3] | IC50 [4] | IC50 [5] | IC50 [6] | IC50 [7] | IC50 [8] | K [9] | Activity [10] | Activity [11] | Activity [12] |
| --- | --- | --- | --- | --- | --- | --- | --- | --- | --- | --- | --- | --- |
| CCOC1OC(=O)C(Cl)=C1Nc1ccc(-c2ccc(N)cc2)cc1 (stereo not drawn) | 1.64 | 44.8 µM | 49.6 µM | > 100 µM | 37.7 µM | > 100 µM | > 100 µM |  |  |  |  |  |
| COC1OC(=O)C(Br)=C1Nc1ccc(-c2ccc(N)cc2)cc1 (stereo not drawn) | 1.46 | 69.6 µM | 64.2 µM | 59.6 µM | > 100 µM | 68.6 µM | 82.3 µM | > 100 µM |  |  |  |  |
| COC1OC(=O)C(Cl)=C1Nc1ccc(-c2ccc(N)cc2)cc1 (stereo not drawn) | 0.913 | > 100 µM | 64.8 µM | > 100 µM | > 100 µM | > 100 µM | > 100 µM | > 100 µM |  |  |  |  |
| COC1OC(=O)C(Br)=C1Nc1ccc(-c2ccccc2)cc1 (stereo not drawn) | 1.33 | 67.5 µM | 37.9 µM | 37.8 µM | 97.5 µM | 52.6 µM | 45.2 µM | 48 µM |  |  |  |  |
| CC(=O)OC1OC(=O)C(Br)=C1Nc1ccc(-c2ccccc2)cc1 (stereo not drawn) | 1.31 | 91.4 µM | 44.4 µM | 37.3 µM | 60.2 µM | 81.7 µM | 27.4 µM | 34.9 µM | 9.4 ×10⁶ /M | inactive | 17% | Active |
